Data reported in US4518611A, “2-Furylbutyrolactone modulation of the immune system in mammals” (priority 1983, dated 1985).
“Also recorded” adds a separate entry of the source. Like-named read-outs stand apart in the source and are kept apart here.

What was measured:
[1] = system: CD-1 mice; conditions: 14 days
Procedure: (§1) Single oral dose LD50 in CD-1 mice and CD rats, obtained from Charles River U.K. Ltd., for Cpd. 1 is determined. […] Cpd. 1, dissolved in buffer, or just buffer is administered orally and the mice and rats are observed for 14 days after dosing. After 14 days, the animals are sacrificed and necropsy is performed to check for gross evidence of toxicity.

[2] = system: CD rats; conditions: 14 days
Procedure: as §1

[3] = system: human lymphocytes; assay: In vitro lymphocyte stimulation assay, human lymphocytes; type: cell-based
Procedure: (§2) The purpose of this assay is to challenge lymphocytes in microcultures with one or more polyclonal mitogens at concentrations that will induce mitogenesis within 72 hours of stimulation.
(§3) In the mouse model, spleens are removed from different strains of mice and the spleen cells are teased free and suspended in RPMI-1640 tissue culture medium at a concentration of usually […]. These cells are dispensed at a concentration of 5.0×10^5 cells per microculture well in a 96 well flat bottom 96 well tissue culture plate. All testing of the compounds of this invention or mitogens are done in replicates of 10. The cells are then treated with PHA, Con-A, specific antigens, or buffer only. If in vitro testing is done, varying concentrations of the compounds of this invention or buffer only are added to the cells as well. After treatment with the mitogens and/or compounds of this invention, the cells are incubated for 72 hours. The response of these cells to mitogens and/or the compounds of this invention is assessed using ^14 C-thymidine labeling on the fourth day at a concentration of 0.01 μCi/well. The labeled cells are harvested using a lymphocyte harvestor and placed onto fibrous paper discs. A scintillation cocktail is added to vials containing the discs and the results are obtained using a LKB-liquid scintillation counter (Model 1216/Rackbeta II). The data is expressed as a ratio of the cpm of the mitogen stimulated group to the control (nonmitogen) treated group=lymphocyte stimulation index (LSI).
(§4) The lymphocyte stimulation assay may be performed directly on spleen cells obtained from various strains of mice not treated with the compounds of this invention or on lymphocytes obtained from human […]. […] Alternatively, the mice may be treated in vivo with the compounds of this invention by intraperitoneal multi-dose schedules, followed by sacrifice and harvesting spleen lymphocytes. These cells are then tested for their response to polyclonal mitogens or specific antigens used to immunize the mice. In this system however, no additional compound is added to the in vitro lymphocyte stimulation assay system.
Lymphocytes isolated from 5 human volunteers are treated in vitro with PHA and Con-A and either 0.1, 1, 10, 50, or 100 μg/well of Cpd. 1, 0.1, 1, 10, 50, or 100 μg/well of AA, or buffer.

[4] = system: FLC-745 target cells; assay: MLTC assay of cytotoxic lymphocyte (CTL) activity, FLC-745 target cells; type: cell-based, mouse, DBA/2
Text: A mixed lymphocyte tumor culture (MLTC) immunoassay, used to determine the cytotoxic lymphocyte (CTL) activity employs lymphocytes from either immunized (sensitized) mice or DBA/2 tumor dormant state animals in various stages of the tumor dormant state (TDS). The assay employs L5178Y target cells labeled with ^51 Chromium and effector cells (sensitized lymphocytes) from the above-mentioned sources. Effector-target cell ratios will vary with different experimental conditions and may or may not include irradiated stimulator L5178Y cells. Results are expressed as % lysis of target cells based on ratio of cpm of test group over cpm of total release (maximum) both of which are corrected for spontaneous release of ^51 Cr. The assay can be performed as an 8 or 18 hour release assay.
An MLTC assay is performed to assess the CTL activity and tumor target cell specificity of Cpd. 1. Tumor dormant spleen cells and normal spleen cells of DBA/2 mice are used as effector cells. Irradiated L5178Y cells are used as stimulator cells. ^51 Cr-labeled L5178Y cells and FLC-745 cells are used as target cells. The effector/target ratios studied are 100:1, 30:1 and 10:1.

[5] = system: C57BL/6 mice; conditions: for Number Dead on Day 3: ten mice per dose
Procedure: Single dose LD50 in C57BL/6 mice for Cpd. 1 is determined following the method of Spearman and Karber described in Basic Exercises in Immunochemistry, 1979. Briefly, 0.5 ml of each dose is given to each of ten mice. The survivors are counted after 3 days and the LD50 is calculated using the following formula: [formula] where D=fold diferences between doses, R=total number dead, and N=total number of animals tested.

[6] = system: spleen lymphocytes; conditions: 4 days
Procedure: as §2, §3, §4
Two strains of mice, C57BL/6 and BALB/c, are treated 4 days with i.p. administration of either 50, 100, 200, or 400 mg/kg of Cpd. 1, or just buffer. This is followed on the fifth day by a lymphocyte stimulation assay.

In the case of Cc1ccc(C2(O)C(=O)OC3C(O)COC32O)o1.Cc1ccc(C2(O)C(=O)OC3C(O)COC32O)o1.O=C1CCC(=O)O1 (stereo not shown) [Cpd. 1, 2-furylbutyrolactone:succinic anhydride], the “deaths or signs of toxicity” value ([1]; 5 g/kg oral) was “No deaths or signs of toxicity”, the LD50 ([1]; single oral dose) was over 5000 mg/kg and the “deaths or signs of toxicity” value ([2]; 5 g/kg oral) was “No deaths or signs of toxicity”. The LD50 ([2]; single oral dose) was over 5000 mg/kg, the “Lymphocyte Stimulation Index, Con-A” value ([3]; 0.1 μg/well) was 38.06 and the “Lymphocyte Stimulation Index, PHA” value ([3]; 0.1 μg/well) was 56.67. The “Lymphocyte Stimulation Index, Con-A” value ([3]; 1.0 μg/well) was 32.63, the “Lymphocyte Stimulation Index, PHA” value ([3]; 1.0 μg/well) was 48.60 and the “Lymphocyte Stimulation Index, Con-A” value ([3]; 10 μg/well) was 23.82. For the same compound, the “Lymphocyte Stimulation Index, PHA” value ([3]; 10 μg/well) was 34.37, the “Lymphocyte Stimulation Index, Con-A” value ([3]; 50 μg/well) was 1.33 and the “Lymphocyte Stimulation Index, PHA” value ([3]; 50 μg/well) was 0.40. For the same compound, the “Lymphocyte Stimulation Index, Con-A” value ([3]; 100 μg/well) was 0.44, the “Lymphocyte Stimulation Index, PHA” value ([3]; 100 μg/well) was 0.544 and the “effect on lymphocyte response (in words)” value ([3]; in vitro, PHA and Con-A) was “a high dose anti-proliferative effect, at doses of 100 and 50 μg/ml; also recorded: markedly increased lymphocyte response at very low doses of 1 and 0.1 μg/ml”. The “% Lysis” value ([4]; E + D, E/T 10:1, TDS effectors, no stimulators) was 0.7%, the “% Lysis” value ([4]; E + D, E/T 30:1, TDS effectors, no stimulators) was 4.6% and the “% Lysis” value ([4]; E + D, E/T 100:1, TDS effectors, no stimulators) was 6.6%. For the same compound, the “% Lysis” value ([4]; E + S + D, E/T 10:1, TDS effectors + stimulators) was 0.5%, the “% Lysis” value ([4]; E + S + D, E/T 30:1, TDS effectors + stimulators) was 3.6% and the “enhancement of CTL activity (in words)” value ([4]; FLC-745 target, TDS effectors with stimulator cells) was “This effect is not observed in the FLC-745 target control system”. For the same compound, the “% Lysis” value ([4]; N + D, E/T 10:1, normal spleen cells, no stimulators) was -3.5%, the “% Lysis” value ([4]; N + D, E/T 30:1, normal spleen cells, no stimulators) was 0.9% and the “% Lysis” value ([4]; N + S + D, E/T 10:1, normal spleen cells + stimulators) was -1.1%. The “% Lysis” value ([4]; N + S + D, E/T 30:1, normal spleen cells + stimulators) was -0.8%, the “% Lysis” value ([4]; N + S + D, E/T 100:1, normal spleen cells + stimulators) was 5.8% and the “Number Dead on Day 3” value ([5]; 1,000 mg/kg single i.p.) was 0. The “Number Dead on Day 3” value ([5]; 2,000 mg/kg single i.p.) was 0, the “Number Dead on Day 3” value ([5]; 4,000 mg/kg single i.p.) was 7 and the “Number Dead on Day 3” value ([5]; 8,000 mg/kg single i.p.) was 10. For the same compound, the “Number Dead on Day 3” value ([5]; 16,000 mg/kg single i.p.) was 10, the LD50 ([5]; purified Cpd. 1, single i.p. injection, 4320 min) was over 3000 mg/kg and the “Lymphocyte Stimulation Index, Con-A” value ([6]; 50 mg/kg i.p.) was 20.5. The “Lymphocyte Stimulation Index, Control (no mitogen)” value ([6]; 50 mg/kg i.p.) was 1.4, the “Lymphocyte Stimulation Index, PHA” value ([6]; 50 mg/kg i.p.) was 6.44 and the “Lymphocyte Stimulation Index, Con-A” value ([6]; 100 mg/kg i.p.) was 21.8. For the same compound, the “Lymphocyte Stimulation Index, Control (no mitogen)” value ([6]; 100 mg/kg i.p.) was 1.0, the “Lymphocyte Stimulation Index, PHA” value ([6]; 100 mg/kg i.p.) was 5.24 and the “Lymphocyte Stimulation Index, Con-A” value ([6]; 200 mg/kg i.p.) was 20.5. The “Lymphocyte Stimulation Index, Control (no mitogen)” value ([6]; 200 mg/kg i.p.) was “.76”, the “Lymphocyte Stimulation Index, Con-A” value ([6]; 400 mg/kg i.p.) was 18.7 and the “Lymphocyte Stimulation Index, Control (no mitogen)” value ([6]; 400 mg/kg i.p.) was “.90”. For the same compound, the “Lymphocyte Stimulation Index, PHA” value ([6]; 400 mg/kg i.p.) was 6.71.
